In assay [1] the test system is headache induced by CGRP infusion. As to conditions: control group (Petersen et al. 2005); cited from earlier work.
The conditions of assay [2]: clinical trials (Olesen et al. 2004); cited from earlier work.
The test system of assay [3] is facial blood flow. As to conditions: marmoset, electrical stimulation of the trigeminal ganglion (Doods et al. 2000); cited from earlier work.
Assay [4] has as its target T1, recombinant human CL receptor/RAMP1 (Homo sapiens, UniProt O60894+Q16602).
T1 construct: expressed in transfected cells
The assay can be described thus: Recombinant receptor functional assay (cAMP after human α-CGRP stimulation). In kind it is cell-based. The conditions noted are these: HEK 293 cells, 0.3 nM human α-CGRP. Here is the method: (§1) RECOMBINANT RECEPTOR: Human CL receptor (Genbank accession number L76380) was subcloned into the expression vector pIREShyg2 (BD Biosciences Clontech) as a 5′NheI and 3′ PmeI fragment. Human RAMP I (Genbank accession number AJ001014) was subcloned into the expression vector pIRESpuro2 (BD Biosciences Clontech) as a 5′NheI and 3′NotI fragment. HEK 293 cells (human embryonic kidney cells; ATCC #CRL-1573) were cultured in DMEM with 4.5 g/L glucose, 1 mM sodium pyruvate and 2 mM glutamine supplemented with 10% fetal bovine serum (FBS), 100 units/mL penicillin and 100 μg/mL streptomycin, and maintained at 37° C. and 95% humidity. Cells were subcultured by treatment with 0.25% trypsin with 0.1% EDTA in HBSS. Stable cell line generation was accomplished by co-transfecting 10 μg of DNA with 30 μg Lipofectamine 2000 (Invitrogen) in 75 cm^2 flasks. CL receptor and RAMP I expression constructs were co-transfected in equal amounts. […]
RECOMBINANT RECEPTOR FUNCTIONAL ASSAY: Cells were plated in complete growth medium at 85,000 cells/well in 96-well poly-D-lysine coated plates (Corning) and cultured for ˜19 h before assay. […] Dose response curves were plotted and IC50 values determined from a 4-parameter logistic fit as defined by the equation y=((a−d)/(1+(x/c)^b)+d, where y=response, x=dose, a=max response, d=min response, c=inflection point and b=slope.

Assay [5] concerns the target T2, CGRP receptors in SK-N-MC cell membranes (Homo sapiens, UniProt O60894+Q16602).
T2 construct: receptors in SK-N-MC cell membranes; endogenous in cells; host or cells: SK-N-MC cell membranes
The assay is described as follows: Native receptor binding assay (125I-CGRP, SK-N-MC cell membranes). The conditions noted are these: 10 pM 125I-CGRP. The protocol:
NATIVE RECEPTOR BINDING ASSAY: The binding of ^125I-CGRP to receptors in SK-N-MC cell membranes was carried out essentially as described (Edvinsson et al. (2001) Eur. J. Pharmacal. 415, 39-44). Briefly, membranes (25 μg) were incubated in 1 mL of binding buffer [10 mM HEPES, pH 7.4, 5 mM MgCl2 and 0.2% bovine serum albumin (BSA)] containing 10 pM ^125I-CGRP and antagonist. After incubation at room temperature for 3 h, the assay was terminated by filtration through GFB glass fibre filter plates (PerkinElmer) that had been blocked with 0.5% polyethyleneimine for 3 h. The filters were washed three times with ice-cold assay buffer (10 mM HEPES, pH 7.4 and 5 mM MgCl2), then the plates were air dried. Scintillation fluid (50 μL) was added and the radioactivity was counted on a Topeount (Packard Instrument). Data analysis was carried out by using Prism and the Ki was determined by using the Cheng-Prusoff equation (Cheng & Prusoff (1973) Biochem. Pharmacol. 22, 3099-3108).

The target in assay [6] is T1, recombinant human CL receptor/RAMP1. The assay is described as follows: Recombinant receptor binding assay (125I-hCGRP). The conditions noted are these: recombinant human CL receptor/RAMP1 membranes, 10 pM 125I-hCGRP. Here is the method: as §1, with “amounts. Twenty-four hours after transfection the cells were diluted and selective medium (growth medium+300 μg/mL hygromycin and 1 μg/mL puromycin) was added the following day. A clonal cell line was generated by single cell deposition utilizing a FACS Vantage SE (Becton Dickinson). Growth medium was adjusted to 150 μg/mL hygromycin and 0.5 μg/mL puromycin for cell propagation.” for “amounts.”

Assay [7] deals with diameter of the middle meningeal artery. The conditions noted are these: rats, electrical stimulation of the dura mater, prior administration (Williamson et al. 1997); cited from earlier work.
The test system of assay [8] is facial blood flow. As to conditions: rat, trigeminal ganglion stimulation (Escott et al. 1995); cited from earlier work.

Ends that are not written are not given here.

T1 sequence (Q16602 23-461): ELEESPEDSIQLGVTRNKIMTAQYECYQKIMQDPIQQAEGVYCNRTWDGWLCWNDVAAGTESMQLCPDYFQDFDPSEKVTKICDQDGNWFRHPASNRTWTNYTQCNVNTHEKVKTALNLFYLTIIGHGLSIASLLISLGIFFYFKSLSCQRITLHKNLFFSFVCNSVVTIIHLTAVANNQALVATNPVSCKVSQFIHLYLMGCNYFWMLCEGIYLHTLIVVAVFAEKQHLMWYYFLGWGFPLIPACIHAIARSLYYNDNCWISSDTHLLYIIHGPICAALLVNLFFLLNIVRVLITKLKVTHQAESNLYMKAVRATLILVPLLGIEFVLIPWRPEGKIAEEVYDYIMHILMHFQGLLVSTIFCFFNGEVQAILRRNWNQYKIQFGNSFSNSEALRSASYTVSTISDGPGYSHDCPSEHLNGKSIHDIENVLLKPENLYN
T1 sequence (O60894 27-148): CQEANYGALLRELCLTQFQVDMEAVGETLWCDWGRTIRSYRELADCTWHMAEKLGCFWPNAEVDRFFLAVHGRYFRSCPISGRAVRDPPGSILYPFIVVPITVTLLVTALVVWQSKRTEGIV
T2 sequence (Q16602 23-461): as the sequence (Q16602 23-461) above
T2 sequence (O60894 27-148): as the sequence (O60894 27-148) above

Turning to `NCCCC[C@H](NC(=O)[C@@H](Cc1cc(Br)c(O)c(Br)c1)NC(=O)N1CCC(N2Cc3ccccc3NC2=O)CC1)C(=O)N1CCN(c2ccncc2)CC1` [BIBN4096BS], in assay [1], the “prevention of headache induced by CGRP infusion” value is on record as “able to prevent headache”. Besides, the “treating acute attacks of migraine” value in assay [2] is listed as “effective”. For the same molecule, the “effect on increase in facial blood flow” value with facial blood flow [3] is “could be blocked”.

In general, IC50 refers to the concentration needed to halve the response being measured. By Ki is commonly meant the dissociation constant of the complex between target and ligand, obtained from inhibition or displacement. For the molecule `CC(C)(O)c1cnc2n1Cc1c(cc(Cl)c3[nH]ncc13)C[C@H]2NC(=O)c1ccc2c(c1)CC1(C2)C(=O)Nc2ncccc21` (stereo partly drawn) [Example 4, N-[(7R)-4-chloro-10-(1-hydroxy-1-methylethyl)-3,6,7,12-tetrahydroimidazo[1′,2′:1,7]azepino[3,4-e]indazol-7-yl]-2′-oxo-1,1′,2′,3-tetrahydrospiro[indene-2,3′-pyrrolo[2,3-b]pyridine]-5-carboxamide], the IC50 in assay [4] was less than 1000 nM. Besides, the Ki in assay [5] and in assay [6] was less than 1000 nM each time.

As to “CGRP(8-37): a peptide CGRP antagonist; fragment of CGRP that lacks seven N-terminal amino acid residues (VTHRLAGLLSRSGGVVKNNFVPTNVGSKAF; ends and bridges not checked; UniProt P06881 90-119, looked up, fragment)”, the “effect on increased diameter of the middle meningeal artery” value in assay [7] is recorded as “blocked”. In addition, the “effect on increased facial blood flow” value in the assay on facial blood flow [8] was “inhibited”.

(Values after US8796260B2, “Imidazobenzazepine CGRP receptor antagonists” (Merck Sharp & Dohme Corp., priority 2008, dated 2014).)
